Blank lines part the entries; values can stand above or below the compound they belong to.
Tests used:
HER2 = HER2 degradation in BT-474 cells (Example 3, Method 1 Western blot / Method 2 LI-COR imaging); type: cell-based, human; details: 0.5 μM, overnight
Source text: This example illustrates how a HER2 degradation assay may be used as a test to determine and select Hsp90-targeting moieties suitable for use in SDC-TRAPs of the invention, and further illustrates the ability of SDC-TRAPs to target cells preferentially expressing Hsp90. Such a test may further be used to determine the Hsp90 binding ability of SDC-TRAPs of the invention, as well as through competitive binding assays and cell-based Hsp90 client protein degradation assays known in the art.
After treatment, each cytoplasmic sample is prepared from 1×10^6 cells by incubation of cell lysis buffer (#9803, Cell Signaling Technology) on ice for 10 minutes. The resulting supernatant used as the cytosol fractions is dissolved with sample buffer for SDS-PAGE and run on a SDS-PAGE gel, blotted onto a nitrocellulose membrane by using semi-dry transfer. […]
Cells are then fixed in 4% phosphate-buffered paraformaldehyde for 30 minutes at room temperature and then permeabilized by washing five times with 0.1% Triton X-100 in PBS for 5 minutes at room temperature on a shaker. […] The raw data is normalized to DRAQS and the HER2 EC50 is calculated using XLfit™ […]

[1] = test system: MCF-7 breast cancer cells; assay: Mouse xenograft efficacy in an MCF-7 breast cancer model; type: in vivo, CD-1 nude mice
Procedure: MCF-7 breast cancer cells were purchased from ATCC. […] Fetal bovine serum was then added to the medium. The final concentration of fetal bovine serum was 10%. Cells were cultured at 37° C. and 5% CO2.
Mice that were not put on treatment were euthanized. Animals were sourced through CRL (Wilmington, Mass.).

[2] = Tissue distribution of SDC-TRAP and degradation products in tumor-bearing mice (plasma, tumor, heart); type: in vivo, Female SCID Mouse (H1975); details: mouse, in vivo
[3] = Artificial membrane permeability assay (PAMPA); details: for Papp at 5 h: Permeability (10^−6 cm/s)
[4] = Mouse plasma stability (Examples 16-18); type: in vitro ADME; details: 37° C.
in vitro = details: PAMPA, Permeability (cm/s)
[5] = Tissue distribution of ganetespib in female CD-1 nu/nu mice bearing RERF human NSCLC xenografts; type: in vivo; details: mouse, tumor, ganetespib 50 mg/kg IV, DRD
Source text: Tissue Distribution of Ganetespib in Female CD-1 Nu/Nu Mice Bearing RERF Human NSCLC Xenografts
To confirm the distribution of ganetespib in blood, livers, kidneys, brains, hearts, lungs and tumors after IV administration of ganetespib to female CD-1 nu/nu mice bearing RERF human NSCLC xenografts, and to examine metabolic profiles of ganetespib in plasma, red blood cells, and above tissues.
Animals: female CD-1 nu/nu mice bearing RERF human NSCLC xenografts (N=3/group)
Formulation: 10% DMSO, 18% Cremophor RH40, 3.6% dextrose solution (DRD)
Bleeding time points: 5 min, 6, 24 hr
Collected tissues: blood (plasma and red blood cells (RBC)), liver, kidneys, brain, heart, lung, tumor
Protein precipitation: 50 μL of 10 times diluted plasma or RBC+150 μL ACN (10 mM NH4OAc), vortexed and centrifuged at 10000 rpm for 8 min; 150 μL supernatant+150 μL water (10 mM NH4OAc)
Protein precipitation: 100 μL homogenized tissue (1:3 tissue: PBS buffer)+100 μL ACN (10 mM NH4OAc), vortexed and centrifuged at 10000 rpm for 8 min

[6] = 5 h incubation, peak area used in place of concentration, first table

Compound: C=CCNC1=C2C[C@@H](C)C[C@H](OC)[C@H](O)[C@@H](C)/C=C(\C)[C@H](OC(N)=O)[C@@H](OC)/C=C\C=C(/C)C(=O)NC(=CC1=O)C2=O [17-AAG]
degradation of HER2 (HER2): partial degradation of HER2

Kp at 1 h ([2]; female, SCID): 0.17
Kp at 6 h ([2]; female, SCID): 2.25
Kp at 24 h ([2]; female, SCID): 20.4
Kp at 48 h ([2]; female, SCID): 6.85
Kp at […] ([2]; female, SCID): 0.01
concentration at 1 h ([2]; female, SCID): 52900 nM
concentration at 6 h ([2]; female, SCID): 4000 nM
concentration at 24 h ([2]; female, SCID): 359 nM
concentration at 48 h ([2]; female, SCID): 1110 nM
Tumor Conc. ([2]; female, SCID, 1 h): 9.12 nmol/g of tissue
Tumor Conc. ([2]; female, SCID, 6 h): 8.98 nmol/g of tissue
Tumor Conc. ([2]; female, SCID, 24 h): 7.32 nmol/g of tissue
Tumor Conc. ([2]; female, SCID, 48 h): 7.60 nmol/g of tissue
Mass Retention (%) ([3]; same protocol, second table): 18.7%
Compound: CCc1c2c(nc3ccc(OC(=O)N4CCC(CCn5ccc6cc(-n7c(O)nnc7-c7cc(C(C)C)c(O)cc7O)ccc65)CC4)cc13)-c1cc3c(c(=O)n1C2)COC(=O)[C@]3(O)CC [SDC-TRAP-0063, 4,11-diethyl-4-hydroxy-3,14-dioxo-3,4,12,14-tetrahydro-1H-pyrano[3′,4′:6,7]indolizino[1,2-b]quinolin-9-yl 4-(2-(5-(3-(2,4-dihydroxy-5-isopropylphenyl)-5-hydroxy-4H-1,2,4-triazol-4-yl)-1H-indol-1-yl)ethyl)piperidine-1-carboxylate]
suppression of increase in tumor volume ([1]; 150 mg/kg/1×wk versus 100 mg/kg/1×wk (FIG. 8)): appears to prolong the suppression of increase in tumor volume compared to a lower dose (100 mg/kg/1×wk)
tumor growth suppression versus comparators ([1]; either dose (150 or 100 mg/kg/1×wk) (FIG. 8)): greater tumor growth suppression than effector moiety irinotecan alone, or unconjugated binding moiety ganetespib and effector moiety irinotecan administered together
selective targeting of tumor (tissue distribution in plasma, tumor and heart) [2]: selectively targets and accumulates in tumor cells

Compound: CCc1c2c(nc3ccc(O)cc13)-c1cc3c(c(=O)n1C2)COC(=O)[C@]3(O)CC [SN-38, reference compound]
Mouse (5 μM) % Remaining 1 h (37° C.) * ([4]; 5 μM, 1 h, sum of both peaks of parent chromatogram): 87%
Mouse (5 μM) % Remaining 19 h (37° C.) ([4]; 5 μM, 19 h): 52%
Mouse (10 μM) % Remaining 1 h (37° C.) * ([4]; 10 μM, 1 h, sum of both peaks of parent chromatogram): 64%
Papp (in vitro; [6]): 0.643 ×10⁻⁶ cm/s
Papp (in vitro; same protocol, second table): 1.87 ×10⁻⁶ cm/s
Kp at 6 h ([2]; female, SCID): 5.8
Kp at 12 h ([2]; female, SCID): 105
Kp at 24 h ([2]; female, SCID): 105
Kp at […] ([2]; female, SCID): 0.13
concentration at 6 h ([2]; female, SCID): 77.3 nM
concentration at 12 h ([2]; female, SCID): 9.55 nM
concentration at 24 h ([2]; female, SCID): 9.55 nM
Tumor Conc. ([2]; female, SCID, 24 h): 1.07 nmol/g of tissue
Tumor Conc. ([2]; female, SCID, 48 h): 0.046 nmol/g of tissue
Mass Retention (%) ([3]; 5 h incubation, first table): 38.2%
Papp at 5 h [3, 6]: 0.643 ×10⁻⁶ cm/s
Papp at 5 h ([3]; same protocol, second table): 1.87 ×10⁻⁶ cm/s
Mass Retention (%) ([3]; same protocol, second table): 46.6%

concentration at 5 min [5]: 2350 nM
Compound: CC(C)c1cc(-c2n[nH]c(=O)n2-c2ccc3c(ccn3C)c2)c(O)cc1O [ganetespib]

Reference: patent publication US20200316090A1, “TARGETED THERAPEUTICS” (MADRIGAL PHARMACEUTICALS, INC., priority 2012, published 2020)
